This is an account of results in BindingDB's records for doi:10.1021/jm7011563 (University of Siena, 2008).

The target in this test is T1, Type-1 angiotensin II receptor A (Rattus norvegicus, UniProt P25095).
T1 sequence (P25095 whole entry): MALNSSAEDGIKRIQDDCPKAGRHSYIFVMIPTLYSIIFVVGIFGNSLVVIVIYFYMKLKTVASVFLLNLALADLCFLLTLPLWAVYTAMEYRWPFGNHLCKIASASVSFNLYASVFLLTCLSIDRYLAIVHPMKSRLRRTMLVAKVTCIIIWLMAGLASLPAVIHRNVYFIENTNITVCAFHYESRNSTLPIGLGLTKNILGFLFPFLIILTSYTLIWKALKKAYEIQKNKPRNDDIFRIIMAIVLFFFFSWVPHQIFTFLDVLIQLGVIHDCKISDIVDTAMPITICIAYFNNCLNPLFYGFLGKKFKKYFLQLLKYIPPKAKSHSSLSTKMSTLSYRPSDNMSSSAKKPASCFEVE
Description: Displacement of [125I]Sar1,Ile8-Ang2 from AT1 receptor in Wistar rat hepatic membrane. In general terms: Displacement assays read how much labelled ligand stays bound in the presence of the test substance.

Structures are written as SMILES. Bounds are passed on as bounds.

The IC50 is the concentration at which inhibition is half-maximal. High values mean weaker potency, low ones greater potency. Take `CCc1c2[nH]cccc-2c(=O)n1Cc1ccc(-c2ccccc2-c2nnn[nH]2)cc1`: the IC50 was > 10 µM.

For `O=c1c2ccc[nH]c-2cn1Cc1ccc(-c2ccccc2-c2nnn[nH]2)cc1`, the IC50 is > 10 µM.
